The values below come from patent publication US20240246908A1 (ORION CORPORATION, priority 2021, published 2024).

Bounds are passed on as bounds.

This experiment deals with YAP-TEAD. Description: TEAD inhibition, Hippo Pathway TEAD Reporter MCF-7 luciferase assay. The experiment is classed as cell-based. Conditions: Homo sapiens, MCF7, 24 h, Hippo Pathway TEAD Reporter MCF-7 cells, luciferase activity after 24 h; read-out: IC50 of the test compounds on YAP-TEAD inhibition (Group). On the procedure: TEAD inhibition was assayed using Hippo Pathway TEAD Reporter—MCF-7 cell line (BPS Bioscience, Catalog #: 60618) which contains firefly luciferase gene under the control of TEAD responsive elements. In the cell line, YAP1 remains in the nucleus inducing constitutive expression of luciferase reporter. Amount of expressed luciferase was detected using ONE-Glo Luciferase Assay System (Promega) and measuring plates with Enspire Multimode Plate Reader (PerkinElmer).
Hippo Pathway TEAD Reporter—MCF-7 cells were plated on white/clear Poly-D-Lysine coated 384 plates (Corning #356660) at the density of 8500 cells/well. Next day test compounds (11 concentrations with 4 replicates) and DMSO control (0.1%) were added to the plate. After 24 h cells were lysed and luciferase activity was measured. The half maximal inhibitory concentration (IC50) of the test compounds on YAP-TEAD inhibition was determined.
Consider `COc1ccc(Oc2ccc(C(F)(F)F)cc2)cc1NC(=O)[C@@H]1CCC(=O)N1C` [Compound 70, (S)—N-(2-Methoxy-5-(4-(trifluoromethyl)phenoxy)phenyl)-1-methyl-5-oxo-pyrrolidine-2-carboxamide], for which the IC50 was less than 50 nM. Next, `COc1ccc(Oc2ccc(C(F)(F)F)cc2)cc1NC(=O)C1CS(=O)(=O)N1C` (stereo not drawn) [Compound 71, N-(2-Methoxy-5-(4-(trifluoromethyl)phenoxy)phenyl)-2-methyl-1,2-thiazeti-dine-3-carboxamide 1,1-dioxide]: 50 to 300 nM. As for `COc1ccc(Oc2cccc(C(F)(F)F)c2)cc1NC(=O)C1CS(=O)(=O)N1C` (stereo not drawn) [Compound 72, N-(2-Methoxy-5-(3-(trifluoromethyl)phenoxy)phenyl)-2-methyl-1,2-thiaze-tidine-3-carboxamide 1,1-dioxide], the IC50 was in the range of 301 to 2000 nM.

For the compound `COc1cc(F)c(COc2cccc(F)c2)cc1NC(=O)C1CCC(=O)N1` (stereo not drawn) [Compound 73, N-(4-Fluoro-5-((3-fluorophenoxy)methyl)-2-methoxyphenyl)-5-oxopyrrolidine-2-carboxamide], the concentration for half-maximal inhibition (IC50) lay in the range of 50 to 300 nM. Regarding `COc1ccc(Nc2ccc(C(F)(F)F)cc2)cc1NC(=O)C1CCC(=O)N1C` (stereo not drawn) [Compound 74, N-(2-Methoxy-5-((4-(trifluoromethyl)phenyl)amino)phenyl)-1-methyl-5-oxo-pyrrolidine-2-carboxamide], the concentration for half-maximal inhibition (IC50) fell in the range of 50 to 300 nM. With `CN1C(=O)CCC1C(=O)Nc1cc(Oc2ccc(C(F)(F)F)cc2)ccc1F` (stereo not drawn) [Compound 75, N-(2-Fluoro-5-(4-(trifluoromethyl)phenoxy)phenyl)-1-methyl-5-oxopyrrolidine-2-carboxamide], the half-maximal inhibitory concentration (IC50) is less than 50 nM. In the case of `O=C1CCC(C(=O)Nc2cc(Oc3ccc(C(F)(F)F)cc3)ccc2F)N1` (stereo not drawn) [Compound 76, N-(2-Fluoro-5-(4-(trifluoromethyl)phenoxy)phenyl)-5-oxopyrrolidine-2-carboxamide], the IC50 is less than 50 nM. Next, `COc1ccc(Oc2cc(F)cc(F)c2)cc1NC(=O)C1CCC(=O)N1C(C)=O` (stereo not drawn) [Compound 77, 1-Acetyl-N-(5-(3,5-difluorophenoxy)-2-methoxyphenyl)-5-oxopyrrolidine-2-carboxamide]: 50 to 300 nM; `COc1ccc(Oc2cc(F)cc(F)c2)cc1NC(=O)C1CCC(=O)N1C` (stereo not drawn) [Compound 78, N-(5-(3,5-Difluorophenoxy)-2-methoxyphenyl)-1-methyl-5-oxopyrrolidine-2-carboxamide]: 50 to 300 nM; `COc1ccc(Oc2cc(F)ccc2F)cc1NC(=O)C1CCC(=O)N1` (stereo not drawn) [Compound 79, N-(5-(2,5-Difluorophenoxy)-2-methoxyphenyl)-5-oxopyrrolidine-2-carboxamide]: 301 to 2000 nM. With `O=C1CCC2(C(=O)Nc3cc(Oc4ccc(C(F)(F)F)cc4)cc4c3OCCO4)CCCN12` (stereo not drawn) [Compound 80, 3-Oxo-N-(7-(4-(trifluoromethyl)phenoxy)-2,3-dihydrobenzo[b][1,4]dioxin-5-yl)tetrahydro-1H-pyrrolizine-7a(5H)-carboxamide] the figure was 50 to 300 nM; with `COc1ccc(Oc2ccc(C(F)(F)F)cc2)cc1NC(=O)C1CCC(=O)N1C(C)C` (stereo not drawn) [Compound 81, 1-Isopropyl-N-(2-methoxy-5-(4-(trifluoromethyl)phenoxy)phenyl)-5-oxo-pyrrolidine-2-carboxamide], less than 50 nM; with `COc1ccc(Oc2ccc(F)c(F)c2)cc1NC(=O)C1CCC(=O)N1C(C)C` (stereo not drawn) [Compound 82, N-(5-(3,4-Difluorophenoxy)-2-methoxyphenyl)-1-isopropyl-5-oxopyrrolidine-2-carboxamide], 50 to 300 nM.

For the compound `CN1C(=O)CCC1C(=O)Nc1cc(Oc2ccc(C(F)(F)F)cc2)ccc1-c1nnco1` (stereo not drawn) [Compound 83, N-(2-(1,3,4-Oxadiazol-2-yl)-5-(4-(trifluoromethyl)phenoxy)phenyl)-1-methyl-5-oxopyrrolidine-2-carboxamide], the IC50 lay in the range of 50 to 300 nM.

Consider `CN1C(=O)CCC1C(=O)Nc1cc(Oc2cccc(C(F)(F)F)c2)ccc1-c1nnco1` (stereo not drawn) [Compound 84, N-(2-(1,3,4-Oxadiazol-2-yl)-5-(3-(trifluoromethyl)phenoxy)phenyl)-1-methyl-5-oxopyrrolidine-2-carboxamide], for which the IC50 was 301 to 2000 nM. On to `CN1C(=O)CCC1C(=O)Nc1cc(Oc2ccc(F)c(F)c2)ccc1-c1ccn(C)n1` (stereo not drawn) [Compound 85, N-(5-(3,4-Difluorophenoxy)-2-(1-methyl-1H-pyrazol-3-yl)phenyl)-1-methyl-5-oxopyrrolidine-2-carboxamide], for which the IC50 was 301 to 2000 nM. Turning to `CN1C(=O)CCC1C(=O)Nc1cc(Oc2ccc(F)c(F)c2)ccc1-c1ccnn1C` (stereo not drawn) [Compound 86, N-(5-(3,4-Difluorophenoxy)-2-(1-methyl-1H-pyrazol-5-yl)phenyl)-1-methyl-5-oxopyrrolidine-2-carboxamide], the IC50 lay within 50 to 300 nM. Next, `COc1ccc(Oc2ccc(C(F)(F)F)cc2)cc1NC(=O)C1COC(=O)N1C` (stereo not drawn) [Compound 87, N-(2-Methoxy-5-(4-(trifluoromethyl)phenoxy)phenyl)-3-methyl-2-oxo-oxazolidine-4-carboxamide]: less than 50 nM; `COc1ccc(Oc2ccc(F)c(F)c2)cc1NC(=O)C1COC(=O)N1C` (stereo not drawn) [Compound 88, N-(5-(3,4-Difluorophenoxy)-2-methoxyphenyl)-3-methyl-2-oxooxazolidine-4-carboxamide]: less than 50 nM; `COc1ccc(COc2ccc(F)c(F)c2)cc1NC(=O)C1COC(=O)N1C` (stereo not drawn) [Compound 89, N-(5-((3,4-Difluorophenoxy)methyl)-2-methoxyphenyl)-3-methyl-2-oxo-oxazolidine-4-carboxamide]: 50 to 300 nM. As for `COc1ccc(COc2cccc(F)c2)cc1NC(=O)C1COC(=O)N1C` (stereo not drawn) [Compound 90, N-(5-((3-Fluorophenoxy)methyl)-2-methoxyphenyl)-3-methyl-2-oxo-oxazolidine-4-carboxamide], the half-inhibitory concentration (IC50) lay within 50 to 300 nM.

As to `COc1ccc(Oc2ccc(C(F)(F)F)cc2)cc1NC(=O)C1CCC(=S)N1C` (stereo not drawn) [Compound 91, N-(2-Methoxy-5-(4-(trifluoromethyl)phenoxy)phenyl)-1-methyl-5-thioxo-pyrrolidine-2-carboxamide], the IC50 was less than 50 nM.

In the case of `COc1ccc(Oc2ccc(C(F)(F)F)cc2)cc1NC(=O)C1CCC(=S)N1` (stereo not drawn) [Compound 92, N-(2-Methoxy-5-(4-(trifluoromethyl)phenoxy)phenyl)-5-thioxopyrrolidine-2-carboxamide], the IC50 was less than 50 nM. For `COc1ccc(Oc2ccc(F)c(F)c2)cc1NC(=O)[C@H]1CCC(=O)N1C` [Compound 93, (R)—N-(5-(3,4-Difluorophenoxy)-2-methoxyphenyl)-1-methyl-5-oxopyrrolidine-2-carboxamide], the half-inhibitory concentration (IC50) is less than 50 nM.

For the compound `COc1ccc(Oc2ccc(F)c(F)c2)cc1NC(=O)[C@@H]1CCC(=O)N1C` [Compound 94, (S)—N-(5-(3,4-Difluorophenoxy)-2-methoxyphenyl)-1-methyl-5-oxopyrrolidine-2-carboxamide], the IC50 lay within 50 to 300 nM. With `COc1ccc(COc2ccc(F)c(F)c2)cc1NC(=O)C1CCC(=O)N1C` (stereo not drawn) [Compound 95, N-(5-((3,4-Difluorophenoxy)methyl)-2-methoxyphenyl)-1-methyl-5-oxo-pyrrolidine-2-carboxamide] the figure was 50 to 300 nM; with `COc1ccc(OC2CC3CCC2C3)cc1NC(=O)C1CCC(=O)N1C` (stereo not drawn) [Compound 96, N-(5-(Bicyclo[2.2.1]heptan-2-yloxy)-2-methoxyphenyl)-1-methyl-5-oxo-pyrrolidine-2-carboxamide], 50 to 300 nM.
